Among the data in US4278681A, “Antibacterial amide compounds and means for using the same” (Warner-Lambert Co., priority 1980, dated 1981) are MIC values, retold here.

The structures appear in SMILES notation. Converted amounts (≈) assume the structure as drawn.

Holding throughout (assay): Minimal Inhibitory Concentration by Microtitration, dilution in TSB
Common to all, as to format: cell-based

The subject of experiment [1] is Klebsiella pneumoniae MGH-2. The note with it: MGH2, TSB (Trypticase soy broth). From the text: (§1) Minimal Inhibitory Concentration by Microtitration (μg/ml)
(§2) Dilution in TSB (Trypticase soy broth).

The test system of experiment [2] is Pseudomonas aeruginosa BRK 12-4-4. The note with it: BRK1244, TSB (Trypticase soy broth).
Text: as §1, §2

The test system of experiment [3] is Enterobacter cloacae IMM-11. The note with it: IMM11, TSB (Trypticase soy broth).
Text: as §1, §2

Experiment [4] relates to Serratia marcescens IMM-16. The note with it: IMM16, TSB (Trypticase soy broth).
Text: as §1, §2

The test system of experiment [5] is Pseudomonas aeruginosa UI-18. As to conditions: UI18, TSB (Trypticase soy broth).
Text: as §1, §2

Regarding `CC(=O)N[C@@H](C)C(=O)Nc1ccc(-c2ccc(C(=O)N[C@@H](C(=O)N[C@@H]3C(=O)N4[C@@H]3SC(C)(C)[C@@H]4C(=O)O)c3ccc(O)cc3)c(=O)[nH]2)cc1`, the MIC (in general, the smallest concentration in the dilution series that meets the test's criterion for growth inhibition) in experiment [1] worked out at 3.1 µg/mL (≈ 4.49 µM); in experiment [2] it was 1.6 µg/mL (≈ 2.32 µM); in experiment [3], 1.6 µg/mL (≈ 2.32 µM); in experiment [4], 3.1 µg/mL (≈ 4.49 µM); in experiment [5] it was 0.8 µg/mL (≈ 1.16 µM).

Turning to `CC(=O)NCCCC(=O)Nc1ccc(-c2ccc(C(=O)N[C@@H](C(=O)N[C@@H]3C(=O)N4[C@@H]3SC(C)(C)[C@@H]4C(=O)O)c3ccc(O)cc3)c(=O)[nH]2)cc1`, the MIC was determined as 3.1 µg/mL (≈ 4.4 µM) in experiment [1]; 3.1 µg/mL (≈ 4.4 µM) in experiment [2]; 6.3 µg/mL (≈ 8.94 µM) in experiment [3]; 3.1 µg/mL (≈ 4.4 µM) in experiment [4]; 1.6 µg/mL (≈ 2.27 µM) in experiment [5].

For `CC(=O)N1CCC[C@H]1C(=O)Nc1ccc(-c2ccc(C(=O)N[C@@H](C(=O)N[C@@H]3C(=O)N4[C@@H]3SC(C)(C)[C@@H]4C(=O)O)c3ccc(O)cc3)c(=O)[nH]2)cc1`, the MIC in experiment [1] was 12.5 µg/mL (≈ 17.4 µM); in experiment [2], 1.6 µg/mL (≈ 2.23 µM); in experiment [3], 6.3 µg/mL (≈ 8.79 µM); in experiment [4], 6.3 µg/mL (≈ 8.79 µM); in experiment [5], 1.6 µg/mL (≈ 2.23 µM).

Take `CC(=O)N[C@@H](CCC(N)=O)C(=O)Nc1ccc(-c2ccc(C(=O)N[C@@H](C(=O)N[C@@H]3C(=O)N4[C@@H]3SC(C)(C)[C@@H]4C(=O)O)c3ccc(O)cc3)c(=O)[nH]2)cc1`: the MIC was found to be 12.5 µg/mL (≈ 16.7 µM) in experiment [1]; 3.1 µg/mL (≈ 4.15 µM) in experiment [2]; 3.1 µg/mL (≈ 4.15 µM) in experiment [3]; 3.1 µg/mL (≈ 4.15 µM) in experiment [4]; 1.6 µg/mL (≈ 2.14 µM) in experiment [5].

As to `CC(=O)N1CC(O)C[C@H]1C(=O)Nc1ccc(-c2ccc(C(=O)N[C@@H](C(=O)N[C@@H]3C(=O)N4[C@@H]3SC(C)(C)[C@@H]4C(=O)O)c3ccc(O)cc3)c(=O)[nH]2)cc1` (some centres unmarked), the MIC stood at 12.5 µg/mL (≈ 17.1 µM) in experiment [1]; 3.1 µg/mL (≈ 4.23 µM) in experiment [2]; 3.1 µg/mL (≈ 4.23 µM) in experiment [3]; 6.3 µg/mL (≈ 8.6 µM) in experiment [4]; 1.6 µg/mL (≈ 2.18 µM) in experiment [5].

For the compound `C[C@H](NC=O)C(=O)Nc1ccc(-c2ccc(C(=O)N[C@@H](C(=O)N[C@@H]3C(=O)N4[C@@H]3SC(C)(C)[C@@H]4C(=O)O)c3ccc(O)cc3)c(=O)[nH]2)cc1`, the MIC came out at 6.3 µg/mL (≈ 9.31 µM) in experiment [1]; 1.6 µg/mL (≈ 2.36 µM) in experiment [2]; 3.1 µg/mL (≈ 4.58 µM) in experiment [3]; 3.1 µg/mL (≈ 4.58 µM) in experiment [4]; 1.6 µg/mL (≈ 2.36 µM) in experiment [5].

On to `CC(=O)N[C@@H](C)C(=O)N[C@@H](C)C(=O)Nc1ccc(-c2ccc(C(=O)N[C@@H](C(=O)N[C@@H]3C(=O)N4[C@@H]3SC(C)(C)[C@@H]4C(=O)O)c3ccc(O)cc3)c(=O)[nH]2)cc1`, for which the MIC in experiment [1] amounted to 25 µg/mL (≈ 32.8 µM); in experiment [2], 6.3 µg/mL (≈ 8.27 µM); in experiment [3], 12.5 µg/mL (≈ 16.4 µM); in experiment [4], 6.3 µg/mL (≈ 8.27 µM); in experiment [5] it was 3.1 µg/mL (≈ 4.07 µM).

For the compound `CC1(C)S[C@@H]2[C@H](NC(=O)[C@H](NC(=O)c3ccc(-c4ccc(NC(=O)[C@@H]5CCC(=O)N5)cc4)[nH]c3=O)c3ccc(O)cc3)C(=O)N2[C@H]1C(=O)O`, the MIC in experiment [1] is 6.3 µg/mL (≈ 9.15 µM); in experiment [2], 1.6 µg/mL (≈ 2.32 µM); in experiment [3], 1.6 µg/mL (≈ 2.32 µM); in experiment [4], 3.1 µg/mL (≈ 4.5 µM); in experiment [5], 3.1 µg/mL (≈ 4.5 µM).

On to `C[C@H](NC(N)=O)C(=O)Nc1ccc(-c2ccc(C(=O)N[C@@H](C(=O)N[C@@H]3C(=O)N4[C@@H]3SC(C)(C)[C@@H]4C(=O)O)c3ccc(O)cc3)c(=O)[nH]2)cc1`, for which the MIC came out at 6.3 µg/mL (≈ 9.11 µM) in experiment [1]; 1.6 µg/mL (≈ 2.31 µM) in experiment [2]; 6.3 µg/mL (≈ 9.11 µM) in experiment [3]; 3.1 µg/mL (≈ 4.48 µM) in experiment [4]; 1.6 µg/mL (≈ 2.31 µM) in experiment [5].

As to `CC(=O)OC1C[C@@H](C(=O)Nc2ccc(-c3ccc(C(=O)N[C@@H](C(=O)N[C@@H]4C(=O)N5[C@@H]4SC(C)(C)[C@@H]5C(=O)O)c4ccc(O)cc4)c(=O)[nH]3)cc2)N(C(C)=O)C1` (some centres unmarked), the MIC in experiment [1] was 12.5 µg/mL (≈ 16.1 µM); in experiment [2] it was 1.6 µg/mL (≈ 2.07 µM); in experiment [3] it was 6.3 µg/mL (≈ 8.13 µM); in experiment [4], 6.3 µg/mL (≈ 8.13 µM); in experiment [5] it was 1.6 µg/mL (≈ 2.07 µM).

Consider `CC(=O)N1CC(=O)C[C@H]1C(=O)Nc1ccc(-c2ccc(C(=O)N[C@@H](C(=O)N[C@@H]3C(=O)N4[C@@H]3SC(C)(C)[C@@H]4C(=O)O)c3ccc(O)cc3)c(=O)[nH]2)cc1`, for which the MIC stood at 25 µg/mL (≈ 34.2 µM) in experiment [1]; 6.3 µg/mL (≈ 8.62 µM) in experiment [2]; 12.5 µg/mL (≈ 17.1 µM) in experiment [3]; 12.5 µg/mL (≈ 17.1 µM) in experiment [4]; 3.1 µg/mL (≈ 4.24 µM) in experiment [5].

As for `CC(=O)O[C@@H]1C[C@H](C(=O)Nc2ccc(-c3ccc(C(=O)N[C@@H](C(=O)N[C@@H]4C(=O)N5[C@@H]4SC(C)(C)[C@@H]5C(=O)O)c4ccc(O)cc4)c(=O)[nH]3)cc2)N(C(C)=O)C1`, the MIC in experiment [1] is 25 µg/mL (≈ 32.3 µM); in experiment [2], 6.3 µg/mL (≈ 8.13 µM); in experiment [3], 12.5 µg/mL (≈ 16.1 µM); in experiment [4], 12.5 µg/mL (≈ 16.1 µM); in experiment [5] it was 3.1 µg/mL (≈ 4 µM).

`COC1C[C@@H](C(=O)Nc2ccc(-c3ccc(C(=O)N[C@@H](C(=O)N[C@@H]4C(=O)N5[C@@H]4SC(C)(C)[C@@H]5C(=O)O)c4ccc(O)cc4)c(=O)[nH]3)cc2)N(C(C)=O)C1` (some centres unmarked): the MIC came out at 25 µg/mL (≈ 33.5 µM) in experiment [1]; 6.3 µg/mL (≈ 8.44 µM) in experiment [2]; 12.5 µg/mL (≈ 16.7 µM) in experiment [3]; 12.5 µg/mL (≈ 16.7 µM) in experiment [4]; 3.1 µg/mL (≈ 4.15 µM) in experiment [5].

Turning to `CC(=O)N1CC=CC1C(=O)Nc1ccc(-c2ccc(C(=O)N[C@@H](C(=O)N[C@@H]3C(=O)N4[C@@H]3SC(C)(C)[C@@H]4C(=O)O)c3ccc(O)cc3)c(=O)[nH]2)cc1` (some centres unmarked), the MIC is 12.5 µg/mL (≈ 17.5 µM) in experiment [1]; 3.1 µg/mL (≈ 4.34 µM) in experiment [2]; 6.3 µg/mL (≈ 8.81 µM) in experiment [3]; 12.5 µg/mL (≈ 17.5 µM) in experiment [4]; 3.1 µg/mL (≈ 4.34 µM) in experiment [5].

With `CC(=O)N1CC(OC=O)C[C@H]1C(=O)Nc1ccc(-c2ccc(C(=O)N[C@@H](C(=O)N[C@@H]3C(=O)N4[C@@H]3SC(C)(C)[C@@H]4C(=O)O)c3ccc(O)cc3)c(=O)[nH]2)cc1` (some centres unmarked), the MIC turned out to be 6.3 µg/mL (≈ 8.28 µM) in experiment [1]; 0.8 µg/mL (≈ 1.05 µM) in experiment [2]; 1.6 µg/mL (≈ 2.1 µM) in experiment [3]; 6.3 µg/mL (≈ 8.28 µM) in experiment [4]; 0.8 µg/mL (≈ 1.05 µM) in experiment [5].

As to `CCC(=O)OC1C[C@@H](C(=O)Nc2ccc(-c3ccc(C(=O)N[C@@H](C(=O)N[C@@H]4C(=O)N5[C@@H]4SC(C)(C)[C@@H]5C(=O)O)c4ccc(O)cc4)c(=O)[nH]3)cc2)N(C(C)=O)C1` (some centres unmarked), the MIC worked out at 12.5 µg/mL (≈ 15.8 µM) in experiment [1]; 3.1 µg/mL (≈ 3.93 µM) in experiment [2]; 6.3 µg/mL (≈ 7.99 µM) in experiment [3]; 6.3 µg/mL (≈ 7.99 µM) in experiment [4]; 1.6 µg/mL (≈ 2.03 µM) in experiment [5].

Turning to `CN1C(=O)CC[C@H]1C(=O)Nc1ccc(-c2ccc(C(=O)N[C@@H](C(=O)N[C@@H]3C(=O)N4[C@@H]3SC(C)(C)[C@@H]4C(=O)O)c3ccc(O)cc3)c(=O)[nH]2)cc1`, the minimum inhibitory concentration (MIC) in experiment [1] was 6.3 µg/mL (≈ 8.96 µM); in experiment [2], 1.6 µg/mL (≈ 2.28 µM); in experiment [3], 3.1 µg/mL (≈ 4.41 µM); in experiment [4], 6.3 µg/mL (≈ 8.96 µM); in experiment [5], 0.8 µg/mL (≈ 1.14 µM).

Regarding `CC(=O)NCCCC[C@H](NC(C)=O)C(=O)Nc1ccc(-c2ccc(C(=O)N[C@@H](C(=O)N[C@@H]3C(=O)N4[C@@H]3SC(C)(C)[C@@H]4C(=O)O)c3ccc(O)cc3)c(=O)[nH]2)cc1`, the MIC in experiment [1] turned out to be 25 µg/mL (≈ 31.7 µM); in experiment [2], 6.3 µg/mL (≈ 7.98 µM); in experiment [3], 12.5 µg/mL (≈ 15.8 µM); in experiment [4] it was 50 µg/mL (≈ 63.3 µM); in experiment [5], 6.3 µg/mL (≈ 7.98 µM).

With `CC1(C)S[C@@H]2[C@H](NC(=O)[C@H](NC(=O)c3ccc(-c4ccc(NC(=O)CN5CCCC5=O)cc4)[nH]c3=O)c3ccc(O)cc3)C(=O)N2[C@H]1C(=O)O`, the minimal inhibitory concentration (MIC) in experiment [1] is 6.3 µg/mL (≈ 8.96 µM); in experiment [2], 3.1 µg/mL (≈ 4.41 µM); in experiment [3], 3.1 µg/mL (≈ 4.41 µM); in experiment [4] it was 6.3 µg/mL (≈ 8.96 µM); in experiment [5], 3.1 µg/mL (≈ 4.41 µM).
